Measurements as given in the supplement of paper PMC10331698.
± gives the standard deviation of the averaged measurements.

Tests used:
Test in all cases: level (log10 ratio to DMSO vehicle control); higher = higher biomarker level / cell amount than vehicle control
[1] = compound: O=C(O)C=C(C(F)(F)F)C(F)(F)F [3,3-Bis(trifluoromethyl)-2-propenoic acid] (in DMSO)
Protocol: (§1)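 BioMAP Diversity Plus panel of 12 human primary cell co-culture systems (3C, 4H, LPS, SAg, BT, BF4T, BE3C, CASM3C, HDF3CGF, KF3CT, MyoF, Mphg). Compounds were added 1 h before stimulation and left for 24 h (MyoF 48 h; BT 72 h for soluble read-outs or 6 d for IgG). Biomarkers were read by ELISA, cytotoxicity by SRB, PBMC viability and proliferation by Alamar Blue. Each well value was divided by the mean of 8 DMSO control wells on the same plate and log10 transformed; duplicate blinded samples were tested at 4 concentrations.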

[2] = compound: NS(=O)(=O)C(F)(F)C(F)(F)C(F)(F)C(F)(F)C(F)(F)C(F)(F)C(F)(F)C(F)(F)F [Perfluorooctanesulfonamide] (in DMSO)
Protocol: as §1

[3] = compound: CCOC(=O)CC(=O)C(F)(F)C(F)(F)F [Ethyl pentafluoropropionyl acetate] (in DMSO)
Protocol: as §1

[4] = compound: O=S(=O)(O)C(F)(F)C(F)(F)C(F)(F)C(F)(F)C(F)(F)C(F)(F)C(F)(F)F [Perfluoroheptanesulfonic acid] (in DMSO)
Protocol: as §1

Octafluoroadipic acid = compound: O=C(O)C(F)(F)C(F)(F)C(F)(F)C(F)(F)C(=O)O [Octafluoroadipic acid] (in DMSO)
Protocol: as §1

[5] = compound: OCC(F)(F)OC(F)(F)C(F)(F)OC(F)(F)C(F)(F)OC(F)(F)CO [1H,1H,11H,11H-Perfluorotetraethylene glycol] (in DMSO)
Protocol: as §1

| Test System | level (log10) ([1]; 6700 nM) | level (log10) ([1]; 20000 nM) | level (log10) ([1]; 60000 nM) | level (log10) ([2]; 6700 nM) | level (log10) ([2]; 20000 nM) | level (log10) ([3]; 6700 nM) | level (log10) ([3]; 20000 nM) | level (log10) ([3]; 60000 nM) | level (log10) ([4]; 1500 nM) | level (log10) ([4]; 4400 nM) | level (log10) ([4]; 13000 nM) | level (log10) ([4]; 40000 nM) | level (log10) (Octafluoroadipic acid; 6700 nM) | level (log10) (Octafluoroadipic acid; 20000 nM) | level (log10) (Octafluoroadipic acid; 60000 nM) | level (log10) ([5]; 6700 nM) | level (log10) ([5]; 20000 nM) | level (log10) ([5]; 60000 nM) |
| --- | --- | --- | --- | --- | --- | --- | --- | --- | --- | --- | --- | --- | --- | --- | --- | --- | --- | --- |
| LPS:CD69 | -0.072 ± 0.02 | -0.0565 ± 0.057 | -0.028 ± 0.09 | -0.0475 ± 0.0064 | -0.13 | -0.02 ± 0.013 | -0.048 ± 0.02 | -0.021 ± 0.072 | -0.01 ± 0.025 | -0.006 ± 0.0057 | -0.004 ± 0.025 | -0.015 ± 0.061 | 0.0545 ± 0.076 | 0.0595 ± 0.047 | 0.0515 ± 0.064 | -0.0115 ± 0.025 | -0.072 ± 0.035 | -0.095 ± 0.011 |
| LPS:CD106/VCAM-1 | -0.106 ± 0.021 | -0.141 ± 0.018 | -0.244 ± 0.069 | 0.0075 ± 0.0035 | 0.0115 ± 0.016 | 0.004 ± 0.011 | -0.0105 ± 0.037 | -0.0135 ± 0.026 | 0.015 ± 0.023 | 0.009 ± 0.031 | -0.0235 ± 0.052 | -0.01 ± 0.035 | -0.0235 ± 0.037 | -0.0175 ± 0.025 | -0.017 ± 0.048 | 0.001 ± 0.045 | -0.002 ± 0.034 | -0.041 ± 0.052 |
| LPS:CD141/Thrombomodulin | -0.0835 ± 0.093 | -0.091 ± 0.14 | -0.026 ± 0.12 | 0.037 ± 0.072 | 0.0785 ± 0.066 | 0.0635 ± 0.016 | 0.0625 ± 0.012 | 0.077 ± 0.055 | 0.028 ± 0.011 | -0.0075 ± 0.026 | 0.006 ± 0.03 | -0.0065 ± 0.023 | -0.014 ± 0.0014 | -0.0135 ± 0.028 | 0.006 ± 0.014 | 0.0725 ± 0.076 | 0.09 ± 0.067 | 0.157 ± 0.056 |
| LPS:CD142/Tissue Factor | 0.0165 ± 0.064 | -0.023 ± 0.12 | -0.036 ± 0.12 | -0.024 ± 0.047 | -0.043 ± 0.0071 | -0.01 ± 0.021 | -0.032 ± 0.028 | -0.002 ± 0.033 | 0.0145 ± 0.049 | 0.006 ± 0.0042 | 0.0615 ± 0.063 | 0.0555 ± 0.061 | -0.0105 ± 0.022 | 0.02 ± 0.034 | 0.0215 ± 0.0078 | -0.0455 ± 0.016 | -0.0665 ± 0.0064 | -0.0575 ± 0.07 |
| LPS:CXCL8/IL-8 | -0.052 ± 0.0099 | -0.047 ± 0.037 | -0.007 ± 0.069 | 0.005 ± 0.016 | -0.008 ± 0.0014 | -0.022 ± 0.025 | -0.01 ± 0.0071 | -0.0005 ± 0.023 | 0.015 ± 0.0071 | -0.038 ± 0.0014 | -0.0185 ± 0.033 | 0.031 ± 0.09 | 0.0015 ± 0.032 | -0.0035 ± 0.054 | 0.0415 ± 0.1 | -0.0025 ± 0.00071 | -0.01 ± 0.0057 | -0.02 ± 0.011 |
| LPS:IL-1alpha | -0.0355 ± 0.015 | -0.0495 ± 0.023 | -0.095 ± 0.02 | -0.0195 ± 0.025 | -0.013 ± 0.0071 | 0 ± 0.034 | -0.0335 ± 0.025 | 0.0115 ± 0.019 | 0.0125 ± 0.033 | -0.0015 ± 0.026 | -0.002 ± 0.069 | 0.056 ± 0.095 | -0.003 ± 0.0028 | 0.017 ± 0.045 | 0.029 ± 0.047 | -0.02 ± 0.024 | -0.017 ± 0.0057 | -0.006 ± 0.042 |
| LPS:M-CSF | -0.071 ± 0.082 | -0.155 ± 0.13 | -0.203 ± 0.13 | -0.0035 ± 0.032 | 0.05 ± 0.04 | -0.021 ± 0.011 | 0.0085 ± 0.019 | 0.012 ± 0.088 | -0.008 ± 0.027 | -0.0185 ± 0.015 | -0.0405 ± 0.013 | -0.02 ± 0.024 | 0.002 ± 0.0099 | 0.0175 ± 0.023 | 0.0005 ± 0.00071 | 0.0105 ± 0.03 | -0.0025 ± 0.036 | 0.0355 ± 0.011 |
| LPS:SRB | -0.006 ± 0.0071 | -0.024 ± 0.0085 | -0.044 ± 0.0057 | 0.009 ± 0.0057 | -0.0625 ± 0.0078 | 0.0015 ± 0.0021 | 0 ± 0.0028 | -0.004 ± 0.0085 | -0.0105 ± 0.005 | -0.0165 ± 0.0021 | -0.002 ± 0.0085 | 0.007 ± 0.02 | 0.0015 ± 0.0064 | 0.004 ± 0.0085 | -0.0055 ± 0.0064 | -0.0175 ± 0.0078 | -0.0255 ± 0.013 | -0.086 ± 0.013 |
| LPS:sPGE2 | -0.0855 ± 0.016 | -0.09 ± 0.021 | -0.106 ± 0.016 | 0.07 ± 0.011 | 0.0945 ± 0.012 | 0.0175 ± 0.012 | -0.0005 ± 0.013 | 0.034 ± 0.0014 | 0.018 ± 0.024 | 0.0045 ± 0.016 | 0.0175 ± 0.0064 | 0.005 ± 0.024 | -0.002 ± 0.044 | -0.023 ± 0.0028 | -0.014 ± 0.017 | 0.032 ± 0.034 | 0.0965 ± 0.0078 | 0.056 ± 0.011 |
| LPS:sTNF-alpha | -0.0305 ± 0.042 | 0.0195 ± 0.023 | -0.0025 ± 0.035 | 0.007 ± 0.0042 | -0.0245 ± 0.00071 | 0.0125 ± 0.015 | 0.0095 ± 0.0064 | 0.0085 ± 0.012 | 0.024 ± 0.011 | -0.0245 ± 0.012 | -0.0225 ± 0.013 | -0.0295 ± 0.005 | -0.0035 ± 0.0035 | 0.0155 ± 0.005 | 0.0125 ± 0.018 | 0.0035 ± 0.0078 | 0.002 ± 0.0085 | -0.082 ± 0.0099 |
| SAg:CCL2/MCP-1 | -0.0145 ± 0.00071 | -0.0535 ± 0.0078 | -0.079 ± 0.042 | -0.0125 ± 0.021 | 0.0075 ± 0.015 | -0.0005 ± 0.011 | -0.0225 ± 0.0078 | 0.011 ± 0.0085 | -0.001 ± 0.031 | -0.0345 ± 0.044 | -0.024 ± 0.028 | 0.031 ± 0.0071 | -0.014 ± 0.02 | -0.0135 ± 0.0035 | 0.0015 ± 0.018 | -0.023 ± 0.038 | -0.0395 ± 0.03 | -0.094 ± 0.024 |
| SAg:CD38 | 0.0025 ± 0.013 | -0.019 ± 0.017 | -0.073 ± 0.0028 | -0.006 ± 0.0071 | -0.089 ± 0.016 | -0.0055 ± 0.049 | 0.019 ± 0.045 | -0.0175 ± 0.0021 | -0.003 ± 0.025 | -0.019 ± 0.017 | -0.008 ± 0.027 | -0.011 ± 0.0042 | -0.0415 ± 0.023 | -0.026 ± 0.017 | -0.0265 ± 0.0021 | -0.0035 ± 0.049 | -0.0255 ± 0.023 | -0.0895 ± 0.033 |
| SAg:CD40 | 0.0205 ± 0.005 | -0.01 ± 0.017 | -0.094 ± 0.038 | -0.028 ± 0.0042 | -0.1085 ± 0.00071 | 0.005 ± 0.0028 | -0.0205 ± 0.0021 | -0.0275 ± 0.0035 | -0.0375 ± 0.023 | -0.0165 ± 0.012 | -0.009 ± 0.016 | -0.049 ± 0.014 | -0.0135 ± 0.015 | -0.013 ± 0.023 | -0.025 ± 0.016 | 0.011 ± 0.03 | -0.035 ± 0.044 | -0.132 ± 0.043 |
| SAg:CD62E/E-Selectin | -0.096 ± 0.0071 | -0.192 ± 0.032 | -0.459 ± 0.11 | -0.0165 ± 0.00071 | -0.0845 ± 0.015 | -0.0005 ± 0.018 | -0.006 ± 0.0028 | 0.004 ± 0.033 | 0.0035 ± 0.043 | -0.03 ± 0.018 | 0.0025 ± 0.00071 | 0.0435 ± 0.0035 | -0.0095 ± 0.077 | 0.0125 ± 0.053 | 0.0285 ± 0.029 | -0.009 ± 0.042 | -0.0455 ± 0.0078 | -0.276 ± 0.062 |
| SAg:CD69 | -0.0145 ± 0.013 | -0.0615 ± 0.0092 | -0.171 ± 0.0014 | -0.0205 ± 0.06 | -0.119 ± 0.064 | 0.0075 ± 0.026 | -0.0015 ± 0.029 | 0.019 ± 0.05 | -0.0145 ± 0.029 | -0.0175 ± 0.012 | -0.004 ± 0.03 | 0.0045 ± 0.013 | 0.0345 ± 0.073 | 0.0345 ± 0.056 | 0.0315 ± 0.054 | -0.0095 ± 0.1 | -0.0275 ± 0.066 | -0.162 ± 0.061 |
| SAg:CXCL8/IL-8 | -0.0225 ± 0.025 | -0.101 ± 0.023 | -0.227 ± 0.084 | -0.0015 ± 0.005 | -0.0505 ± 0.03 | -0.023 ± 0.016 | -0.0475 ± 0.032 | -0.007 ± 0.085 | 0.0205 ± 0.12 | -0.04 ± 0.075 | -0.001 ± 0.045 | 0.0455 ± 0.047 | 0.014 ± 0.018 | 0.01 ± 0.013 | 0.018 ± 0.031 | -0.0225 ± 0.069 | -0.061 ± 0.072 | -0.209 ± 0.005 |
| SAg:CXCL9/MIG | -0.0065 ± 0.012 | -0.017 ± 0.0099 | 0.006 ± 0.0071 | -0.002 ± 0.0042 | -0.0055 ± 0.011 | -0.001 ± 0.011 | -0.015 ± 0.0099 | 0.0065 ± 0.0021 | -0.0015 ± 0.0092 | -0.002 ± 0.018 | -0.004 ± 0.0085 | 0.008 | -0.0075 ± 0.016 | 0.005 ± 0.0028 | 0.011 ± 0.0057 | -0.0095 ± 0.005 | 0.0095 ± 0.0035 | 0.015 ± 0.0071 |
